Our source for the IC50 values is patent US20220274967A1, “BCAT MODULATION” (Icagen, LLC, priority 2019, published 2022).

The test system of one experiment is GM00371 cells. In words: Viability assay (Cell titer glo) in the 3-HIB assay. In kind it is cell-based, human. The following applies: read-out: 3HIB INHIBITION IC50 (μM) MEAN GM00371 cells Viablility Assay. In short, it runs like this: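 GM00371 cells (10,000/well, EMEM/15% FBS) were exposed for 24 h at 37 °C to compounds in 1:3 serial dilution from 30 μM top concentration in EMEM. Reference Compound B at 30 μM served as maximal-toxicity control. Viability read as CellTiter-Glo luminescence.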
Background: Cellular ATP, detected with luciferase, serves as a proxy for viable cell number.

Experiment [1] can be described thus: 3-HIB assay in vitro, direct MS assay of conditioned media. In kind it is cell-based, human. To be noted: GM00371 cells, read-out: 3HIB INHIBITION IC50 (μM) MEAN GM00371 cells Direct MS Assay.

Like-named read-outs stand apart in the source and are kept apart here. Some results are limits rather than exact numbers.

One may read the IC50 as the concentration at which inhibition is half-maximal. `CNC(=O)c1ccc2c(c1)nc(-c1cccc(F)c1)n2[C@H]1CCC[C@@H](NC(=O)c2ccc(Br)s2)C1` [Compound 154]: the IC50 with GM00371 cells (Homo sapiens, 24 h) is 0.1 to 0.5 µM; in experiment [1] (Homo sapiens, 24 h) it was under 0.1 µM.
Take `CNC(=O)c1ccc2c(c1)nc(-c1ccccn1)n2[C@@H]1CCC[C@H](NC(=O)c2ccc(C#N)s2)C1` [Compound 112]: the IC50 with GM00371 cells (Homo sapiens, 24 h) is at least 1 µM; in experiment [1] (Homo sapiens, 24 h), 0.5 to 1 µM.
Consider `CNC(=O)c1ccc2c(c1)nc(-c1ccccc1C)n2[C@H]1CCC[C@@H](NC(=O)c2ccc(Br)s2)C1` [Compound 135], for which the IC50 in the experiment on GM00371 cells (Homo sapiens, 24 h) was 0.5 to 1 µM; in experiment [1] (Homo sapiens, 24 h), 0.1 to 0.5 µM.
On to `CNC(=O)c1cc2nc(-c3ccccc3C#N)n([C@H]3CCC[C@@H](NC(=O)c4ccc(Br)s4)C3)c2cc1F` [Compound 157], for which the IC50 was under 0.1 µM with GM00371 cells (Homo sapiens, 24 h) and under 0.1 µM in experiment [1] (Homo sapiens, 24 h).
As to `CNC(=O)c1cc2nc(-c3ccccc3C)n([C@H]3CCC[C@@H](NC(=O)c4ccc(Br)s4)C3)c2cc1F` [Compound 208], the IC50 in the experiment on GM00371 cells (Homo sapiens, 24 h) is 0.1 to 0.5 µM; in experiment [1] (Homo sapiens, 24 h), at least 1 µM.
Regarding `COC(=O)c1cc2nc(-c3ccccn3)n([C@@H]3CCC[C@H](NC(=O)c4ccc(Br)s4)C3)c2cn1` [Compound 291], the IC50 was in the range of 0.1 to 0.5 µM in the experiment with GM00371 cells (Homo sapiens, 24 h) and 0.1 to 0.5 µM in experiment [1] (Homo sapiens, 24 h).
Consider `CNC(=O)c1cc2nc(-c3ccccc3F)n([C@H]3CCC[C@@H](NC(=O)c4ccc(Br)s4)C3)c2cc1F` [Compound 207], for which the IC50 in the experiment with GM00371 cells (Homo sapiens, 24 h) is 0.1 to 0.5 µM; in experiment [1] (Homo sapiens, 24 h) it was under 0.1 µM.
On to `CNC(=O)c1ccc2c(c1)nc(-c1ccccc1C#N)n2[C@H]1CCC[C@@H](NC(=O)c2ccc(Br)s2)C1` [Compound 137], for which the IC50 (in the experiment on GM00371 cells (24 hours); in experiment [1] (24 hours)) was 0.1 to 0.5 µM in each case.
Turning to `CNC(=O)c1ccc2c(c1)nc(-c1cccc(F)c1O)n2[C@H]1CCC[C@@H](NC(=O)c2ccc(Br)s2)C1` [Compound 163], the IC50 in the experiment on GM00371 cells (Homo sapiens, 24 h) was in the range of 0.1 to 0.5 µM; in experiment [1] (Homo sapiens, 24 h) it was 0.1 to 0.5 µM.
Take `CNC(=O)c1ccc2c(c1)nc(-c1ccccc1C)n2[C@H]1CCC[C@@H](NC(=O)c2ccc(C#N)s2)C1` [Compound 134]: the IC50 is at least 1 µM in the experiment on GM00371 cells (Homo sapiens, 24 h) and 0.5 to 1 µM in experiment [1] (Homo sapiens, 24 h).
In the case of `COC(=O)c1ccc2c(c1)nc(-c1ccccn1)n2[C@@H]1CCC[C@H](NC(=O)c2ccc(Br)s2)C1` [Compound 109], the IC50 in the experiment with GM00371 cells (Homo sapiens, 24 h) lay in the range of 0.1 to 0.5 µM; in experiment [1] (Homo sapiens, 24 h), 0.1 to 0.5 µM.
For the compound `CNC(=O)c1cc2nc(-c3ccccn3)n([C@H]3CCC[C@@H](NC(=O)c4ccc(Br)s4)C3)c2cc1F` [Compound 155], the IC50 in the experiment with GM00371 cells (Homo sapiens, 24 h) was in the range of 0.5 to 1 µM; in experiment [1] (Homo sapiens, 24 h) it was 0.5 to 1 µM.
On to `CNC(=O)c1ccc2c(c1)nc(-c1ccccc1C#N)n2[C@H]1CCC[C@@H](NC(=O)c2ccc(Br)s2)C1` [Compound 136], for which the IC50 in the experiment on GM00371 cells (Homo sapiens, 24 h) is under 0.1 µM; in experiment [1] (Homo sapiens, 24 h), under 0.1 µM.
Take `CNC(=O)c1ccc2c(c1)nc(-c1ccccc1C#N)n2[C@H]1CCC[C@@H](NC(=O)c2ccc(C#N)s2)C1` [Compound 138]: the half-inhibitory concentration (IC50) is at least 1 µM in the experiment on GM00371 cells (Homo sapiens, 24 h) and at least 1 µM in experiment [1] (Homo sapiens, 24 h).
With `CNC(=O)c1cc2nc(-c3ccccn3)n([C@H]3CCC[C@@H](NC(=O)c4ccc(Br)s4)C3)c2cn1` [Compound 292], the IC50 with GM00371 cells (Homo sapiens, 24 h) lay in the range of 0.1 to 0.5 µM; in experiment [1] (Homo sapiens, 24 h), 0.1 to 0.5 µM.
Turning to `CNC(=O)c1ccc2c(c1)nc(-c1ccccc1C#N)n2[C@H]1CCC[C@@H](NC(=O)c2ccc(C#N)s2)C1` [Compound 139], the IC50 (in the experiment on GM00371 cells (24 hours); in experiment [1] (24 hours)) was at least 1 µM each time.
For the compound `CNC(=O)c1ccc2c(c1)nc(-c1ccccc1F)n2[C@H]1CCC[C@@H](NC(=O)c2ccc(Br)s2)C1` [Compound 145], the IC50 with GM00371 cells (Homo sapiens, 24 h) was 0.1 to 0.5 µM; in experiment [1] (Homo sapiens, 24 h), under 0.1 µM.
For `CNC(=O)c1ccc2c(c1)nc(-c1c(O)cccc1F)n2[C@H]1CCC[C@@H](NC(=O)c2ccc(Br)s2)C1` [Compound 184], the concentration for half-maximal inhibition (IC50) lay within 0.1 to 0.5 µM in the experiment with GM00371 cells (Homo sapiens, 24 h) and 0.1 to 0.5 µM in experiment [1] (Homo sapiens, 24 h).
`C#Cc1ccccc1-c1nc2cc(C(=O)NC)ccc2n1[C@H]1CCC[C@@H](NC(=O)c2ccc(Br)s2)C1` [Compound 151]: the IC50 in the experiment with GM00371 cells (Homo sapiens, 24 h) is 0.1 to 0.5 µM; in experiment [1] (Homo sapiens, 24 h) it was under 0.1 µM.
For the compound `CNC(=O)c1ccc2c(c1)nc(-c1ccccc1C=O)n2[C@H]1CCC[C@@H](NC(=O)c2ccc(Br)s2)C1` [Compound 161], the IC50 with GM00371 cells (Homo sapiens, 24 h) is 0.1 to 0.5 µM; in experiment [1] (Homo sapiens, 24 h), 0.1 to 0.5 µM.
